Test results published in US20030199516A1, “Methods of treating infection by drug resistant bacteria” (Genesoft, Inc., priority 2001, published 2003).

Each molecule was assayed on S. aureus ATCC 27660 (assay: NCCLS broth microdilution MIC). Conditions: Col. A = S. aureus ATCC 27660 (MRSA).
Assay type: cell-based, Staphylococcus aureus
From the text: (§1) In vitro antibacterial activity data were collected for the following Gram-positive bacteria: Staphylococcus aureus (ATCC 27660, ATCC 33591 and ATCC 43300, all methicillin resistant strains (MRSA's)); Streptococcus pneumoniae (ATCC 51422, a penicillin resistant strain (PRSP)), Enterococcus faecium (ATCC 51559, and/or a vancomycin resistant strain (VRE)). Additionally, antifungal activity data were collected for Candida albicans (ATCC 38247). Minimal inhibition concentrations (MIC's) were determined using the National Committee for Clinical Laboratory Standards (NCCLS) broth microdilution assay in microtiter plates, as set forth in: (1) the guidelines of the National Committee for Clinical Laboratory Standards (NCCLS) Document M7-A4 (NCCLS, 1997); (2) the guidelines of the National Committee for Clinical Laboratory Standards (NCCLS) Document M11-A4 (NCCLS, 1997); and (3) the guidelines and reference method of the National Committee for Clinical Laboratory Standards (NCCLS) Document M27-T (NCCLS, 1995). For antifungal essays, the method recommended in Murray, PR., 1995 Manual of Clinical Microbiology (ASM Press, Washington, D.C.), was employed.

Row | Structure (SMILES) | Minimum Inhibitory Concentration (MIC)
1 | Cn1cc(NC(=O)c2cc(NC(=O)CCNC(=O)c3cc(NC(=O)c4cc(NC(=O)c5cc(Br)c(Br)s5)cn4C)cn3C)cn2C)cc1C(=O)NCCC(=O)NCCN1CCCCC1 [Compound 3] | ++ (++ = MIC ≦ 1)
2 | Cn1cc(NC(=O)c2cc(NC(=O)c3cc(NC(=O)c4sc5ccccc5c4Cl)cn3C)cn2C)cc1C(=O)NCCN1CCOCC1 [Compound 8] | ++ (++ = MIC ≦ 1)

Each molecule was assayed on S. aureus ATCC 33591 (assay: NCCLS broth microdilution MIC). Conditions: Col. B = S. aureus ATCC 33591 (MRSA).
Assay type: cell-based, Staphylococcus aureus
From the text: as §1

Row | Structure (SMILES) | Minimum Inhibitory Concentration (MIC)
3 | Cn1cc(NC(=O)c2cc(NC(=O)CCNC(=O)c3cc(NC(=O)c4cc(NC(=O)c5cc(Br)c(Br)s5)cn4C)cn3C)cn2C)cc1C(=O)NCCC(=O)NCCN1CCCCC1 [Compound 3] | ++ (++ = MIC ≦ 1)
4 | Cn1cc(NC(=O)c2cc(NC(=O)c3cc(NC(=O)c4sc5ccccc5c4Cl)cn3C)cn2C)cc1C(=O)NCCN1CCOCC1 [Compound 8] | ++ (++ = MIC ≦ 1)

The molecules below were run on S. aureus ATCC 43300 (assay: NCCLS broth microdilution MIC). Conditions: Col. C = S. aureus ATCC 43300 (MRSA).
Assay type: cell-based, Staphylococcus aureus
From the text: as §1

Row | Structure (SMILES) | Minimum Inhibitory Concentration (MIC)
5 | Cn1cc(NC(=O)c2cc(NC(=O)c3cc(NC(=O)c4sc5ccccc5c4Cl)cn3C)cn2C)cc1C(=O)NCCN1CCOCC1 [Compound 8] | ++ (++ = MIC ≦ 1)

Each molecule was assayed on Enterococcus faecium ATCC 51559 (assay: NCCLS broth microdilution MIC). Conditions: Col. D = E. faecium ATCC 51559 (VRE).
Assay type: cell-based
From the text: as §1

Row | Structure (SMILES) | Minimum Inhibitory Concentration (MIC)
6 | Cn1cc(NC(=O)c2cc(NC(=O)CCNC(=O)c3cc(NC(=O)c4cc(NC(=O)c5cc(Br)c(Br)s5)cn4C)cn3C)cn2C)cc1C(=O)NCCC(=O)NCCN1CCCCC1 [Compound 3] | + (+ = MIC ≦ 2)
7 | Cn1cc(NC(=O)c2cc(NC(=O)c3cc(NC(=O)c4sc5ccccc5c4Cl)cn3C)cn2C)cc1C(=O)NCCN1CCOCC1 [Compound 8] | ++ (++ = MIC ≦ 1)

The molecules below were run on Streptococcus pneumoniae ATCC 51422 (assay: NCCLS broth microdilution MIC). Conditions: Col. E = S. pneumoniae ATCC 51422 (PRSP).
Assay type: cell-based
From the text: as §1

Row | Structure (SMILES) | Minimum Inhibitory Concentration (MIC)
8 | Cn1cc(NC(=O)c2cc(NC(=O)CCNC(=O)c3cc(NC(=O)c4cc(NC(=O)c5cc(Br)c(Br)s5)cn4C)cn3C)cn2C)cc1C(=O)NCCC(=O)NCCN1CCCCC1 [Compound 3] | ++ (++ = MIC ≦ 1)
9 | Cn1cc(NC(=O)c2cc(NC(=O)c3cc(NC(=O)c4sc5ccccc5c4Cl)cn3C)cn2C)cc1C(=O)NCCN1CCOCC1 [Compound 8] | ++ (++ = MIC ≦ 1)

Each molecule was assayed on Candida albicans ATCC 38247 (assay: Antifungal MIC). Conditions: Col. F = C. albicans ATCC 38247.
Assay type: cell-based
From the text: as §1

Row | Structure (SMILES) | Minimum Inhibitory Concentration (MIC) [µg/mL]
10 | Cn1cc(NC(=O)c2cc(NC(=O)CCNC(=O)c3cc(NC(=O)c4cc(NC(=O)c5cc(Br)c(Br)s5)cn4C)cn3C)cn2C)cc1C(=O)NCCC(=O)NCCN1CCCCC1 [Compound 3] | >32
11 | Cn1cc(NC(=O)c2cc(NC(=O)c3cc(NC(=O)c4sc5ccccc5c4Cl)cn3C)cn2C)cc1C(=O)NCCN1CCOCC1 [Compound 8] | >32

These molecules were tested against target sequence AATTAATCAT (352 bp fragment, Plasmid C) (assay: Quantitative DNase I footprint titration). Conditions: 352 bp C, 22° C., pH 7.0, read-out: Dissociation Constant Kd.
Assay type: binding
From the text: (§2) Compounds (1) through (20) according to this invention were screened for their ability to bind to specified DNA target sequences, using DNase I footprinting. Generally, the procedure described in Dervan, WO 98/50582 (1998), was followed.
(§3) Three double stranded circular plasmids A, B, and C were used to prepare double stranded DNA-binding probes containing the target sequences for the DNase I footprint titration experiments. Plasmids A, B, and C had nucleotide sequences given by SEQ ID NO. I, SEQ ID NO. II, and SEQ ID NO. III, respectively.
(§4) The 3′-P32 end-labeled EcoRI/PvuII fragments from each plasmid were prepared by digesting the plasmids with EcoRI and PvuII with simultaneous fill-in using Sequenase v. 2.0, [alpha-P32]-deoxyadenosine-5′-triphosphate, and [alpha-P32]-thymidine-5′-triphosphate, and isolating the cloned fragments by nondenaturing gel electrophoresis. A and G sequencing reactions were carried out as described (See Maxam and Gilbert, Methods Enzymol., 1980, 65, 499-560; Iverson and Dervan, Methods Enzymol., 1987, 15, 7823-7830; Sambrook et al., 1989, Molecular Cloning, 2nd ed., Cold Spring Harbor Laboratory Press: Cold Spring Harbor, N.Y.) Standard methods were used for all DNA manipulations (Sambrook et al., ibid.) The cut sites for EcoRI and PvuII are indicated by bars in the respective maps of Plasmids A, B, and C in FIGS. 5, 6, and 7.
(§5) The 351 base pair dsDNA restriction fragment (SEQ ID NO. IV) of Plasmid A contained the target sequences AAAAAGCAAAAA, AAAAAGACAAAAA, and AAAAAGTACAAAAA. The 310 base pair dsDNA restriction fragment (SEQ ID NO. V) of Plasmid B contained the target sequences AGTACT, AATACT, and ATTACT. The 352 base pair dsDNA restriction fragment (SEQ ID NO. VI) of Plasmid C contained the target sequences TGACAATTAAT, GACAATTAATCA, AATTAATCAT, ACAATTA, and ACAATTAAT. These fragments were used for quantitative DNase I footprinting experiments. Compounds used in the method of this invention bind to at least one of the target sites with a equal to or less than 100 nM, preferably equal to or less than 50 nM, and more preferably equal to or less than 20 nM. The target sequences were selected for the identity with, or similarity to, promoter sites for bacterial genes.
(§6) Quantitative DNase I footprint titration experiments were carried out as described previously (Dervan, WO 98/50582, 1998) with the following changes. All reactions were carried out in a total volume of 400 μL, with compound stock solution or water added to 15,000 cpm radiolabeled restriction fragment affording final solution conditions of 10 mM Tris HCl, 10 mM KCl, 10 mM MgCl2, 5 mM CaCl2, pH 7.0 and 0.01 nM, 0.1 nM, 1.0 nM, 10.0 nM compound or no compound for reference lanes. The compounds were allowed to equilbrate at 22° C. for 16 h. Footprinting reactions were initiated with addition of 10 μL of a DNase I stock solution (at the appropriate concentration to give ˜50% intact DNA) containing 1 mM DTT and allowed to proceed for 7 min at 22° C. The reactions were stopped, ethanol precipitated, resuspended in loading buffer, heat denatured, and placed on ice as described previously (Dervan WO 98/50582, 1998). The reaction products were separated on a precast 8% polyacrylamide denaturing sequencing Castaway gel with 32 preformed wells from Stratagene in 1×TBE at 2000 V. Gels were dried according to the manufacturer and exposed to a storage phosphor screen (Molecular Dynamics). Quantitation and data analysis were carried out as described in Dervan, WO 98/50582, 1998.

Row | Structure (SMILES) | Kd [nM]
12 | Cn1cc(NC(=O)c2cc(NC(=O)c3cc(NC(=O)c4sc5ccccc5c4Cl)cn3C)cn2C)cc1C(=O)NCCN1CCOCC1 [Compound 8] | 0.2

Each molecule was assayed against target sequence TGACAATTAAT (352 bp fragment, Plasmid C) (assay: Quantitative DNase I footprint titration). Conditions: 352 bp C, 22° C., pH 7.0, read-out: Dissociation Constant Kd.
Assay type: binding
From the text: as §2, §3, §4, §5, §6

Row | Structure (SMILES) | Kd [nM]
13 | Cn1cc(NC(=O)c2cc(NC(=O)CCNC(=O)c3cc(NC(=O)c4cc(NC(=O)c5cc(Br)c(Br)s5)cn4C)cn3C)cn2C)cc1C(=O)NCCC(=O)NCCN1CCCCC1 [Compound 3] | 2

What follows are molecules tested against target sequence […] (351 bp fragment, Plasmid A) (assay: Quantitative DNase I footprint titration). Conditions: AAAAAGTACAAAAA, 351 bp A; 22° C., pH 7.0; read-out: Dissociation Constant Kd.
Assay type: binding
From the text: as §2, §3, §4, §5, §6

Row | Structure (SMILES) | Kd [nM]
14 | Cn1cc(NC(=O)c2cc(NC(=O)CCNC(=O)c3cc(NC(=O)c4cc(NC(=O)c5cc(Br)c(Br)s5)cn4C)cn3C)cn2C)cc1C(=O)NCCC(=O)NCCN1CCCCC1 [Compound 3] | 0.01
